Measured values from patent publication US20070082945A1, “Discodermolide compositions” (priority 2003, published 2007).
≈ marks a conversion by molar mass, not a printed value. Where two headings read alike, the source gives them in different places.

Experiments:
Assay type in all cases: physicochemical
[1] = Storage stability of infusion concentrate vials and infusion solution
Protocol: An infusion concentrate comprising 2 mg of discodermolide is dissolved in 98-100% propylene glycol (PG) (1.0 mL) and charged to 6 mL vials. The vials are used for storage and shipment. The vials are stable for a period of at least 2 years at a temperature of 2-8° C. The vehicle is prepared in a separate 2 mL single dose vial. Each mL of solution contains 7.3 mg of sodium chloride USP, and 163 mg of ethanol (EtOH) in water for injection(saline) (16.3% ethanol in 0.9% sodium chloride solution, 2 mL fill). The storage condition is 25° C. for the vehicle. Prior to i.v. administration, 1.6 mL of the vehicle is withdrawn with a sterile disposable syringe and injected into the vial containing the discodermolide. The solution is gently shaken until a clear homogeneous solution for infusion is obtained containing 0.77 mg/mL discodermolide in 40% propylene glycol, 10% ethanol and 50% normal saline. The ratio of discodermolide concentrate to the diluent vehicle in the diluted solution is 1:1.6 v/v. The i.v. solution thus formed is stable for a period of 8 hours at room temperature.

[2] = Solubility and stability in 40% PG/10% ethanol/50% normal saline with hydrotropic agents; details: aqueous with cosolvent or surfactant or cyclodextrin, read-out: Discodermolide Solubility
Text: The solubility and stability of discodermolide in 40% propylene glycol/10% ethanol 50% normal saline diluted with hydrotropic agents is shown in Table 7.

[3] = Stability of infusion concentrates diluted 1:5 with 20/80 propylene glycol/0.9% sodium chloride, ambient conditions
Protocol: In this example, stability of discodermolide infusion concentrates diluted 1:5 with 20/80 propylene glycol/0.9% sodium chloride solution under ambient conditions is measured. Table 4 describes the amount of degradation product formed over a period of up to 24 hours. The stability is analyzed by determining formation of degradation products in each of the infusion solutions as a function of time and temperature. Each sample is analyzed by HPLC with a UV detector. The solution for infusion was prepared by diluting discodermolide concentrates, 0.6 mg/mL, 2.0 mg/mL and 3.0 mg/mL, with 20/80 propylene glycol/0.9% sodium chloride solution in a 1:5 ratio. The discodermolide concentrate solutions of 0.6 mg/mL, 2.0 mg/mL and 3.0 mg/mL yielded discodermolide solutions for infusions 0.12 mg/mL, 0.4 mg/mL and 0.6 mg/mL, respectively.

[4] = Stability of propylene glycol infusion concentrates (HPLC, UV detector), Example 12
Protocol: The stability of propylene glycol infusion concentrates comprising discodermolide at different concentrations and various temperatures is determined. The stability is analyzed by determining formation of degradation products in each of the infusion concentrates as a function of time and temperature. Each sample is analyzed by HPLC with a UV detector. […] Under accelerated conditions, the levels of impurities increased at both 25° C./60% relative humidity (RH) and 45° C./60% RH.

[5] = 0.12 mg/mL solution for infusion, 0 hours
[6] = 0.12 mg/mL solution for infusion, 2 hours
[7] = 0.12 mg/mL solution for infusion, 4 hours
[8] = 0.12 mg/mL solution for infusion, 8 hours
[9] = 0.12 mg/mL solution for infusion, 24 hours
[10] = 0.4 mg/mL solution for infusion, 0 hours
[11] = 0.4 mg/mL solution for infusion, 2 hours
[12] = 0.4 mg/mL solution for infusion, 4 hours
[13] = 0.4 mg/mL solution for infusion, 8 hours
[14] = 0.4 mg/mL solution for infusion, 24 hours
[15] = 0.6 mg/mL solution for infusion, 0 hours
[16] = 0.6 mg/mL solution for infusion, 2 hours
[17] = 0.6 mg/mL solution for infusion, 4 hours
[18] = 0.6 mg/mL solution for infusion, 8 hours
[19] = 0.6 mg/mL solution for infusion, 24 hours
[20] = 0.6 mg/mL infusion concentrate in PG, 0-time
[21] = 0.6 mg/mL infusion concentrate in PG, 5° C., 0.5 month
[22] = 0.6 mg/mL infusion concentrate in PG, 5° C., 1 month
[23] = 0.6 mg/mL infusion concentrate in PG, 5° C., 2 months
[24] = 0.6 mg/mL infusion concentrate in PG, 5° C., 3 months
[25] = 0.6 mg/mL infusion concentrate in PG, 25° C./60% RH, 0.5 month
[26] = 0.6 mg/mL infusion concentrate in PG, 25° C./60% RH, 1 month
[27] = 0.6 mg/mL infusion concentrate in PG, 25° C./60% RH, 2 months
[28] = 0.6 mg/mL infusion concentrate in PG, 25° C./60% RH, 3 months
[29] = 0.6 mg/mL infusion concentrate in PG, 45° C./60% RH, 0.5 month
[30] = 0.6 mg/mL infusion concentrate in PG, 45° C./60% RH, 1 month
[31] = 2.0 mg/mL infusion concentrate in PG, 0-time
[32] = 2.0 mg/mL infusion concentrate in PG, 5° C., 0.5 month
[33] = 2.0 mg/mL infusion concentrate in PG, 5° C., 1 month
[34] = 2.0 mg/mL infusion concentrate in PG, 5° C., 2 months
[35] = 2.0 mg/mL infusion concentrate in PG, 5° C., 3 months
[36] = 2.0 mg/mL infusion concentrate in PG, 25° C./60% RH, 0.5 month
[37] = 2.0 mg/mL infusion concentrate in PG, 25° C./60% RH, 1 month
[38] = 2.0 mg/mL infusion concentrate in PG, 25° C./60% RH, 2 months
[39] = 2.0 mg/mL infusion concentrate in PG, 25° C./60% RH, 3 months
[40] = 2.0 mg/mL infusion concentrate in PG, 45° C./60% RH, 0.5 month
[41] = 2.0 mg/mL infusion concentrate in PG, 45° C./60% RH, 1 month
[42] = 3.0 mg/mL infusion concentrate in PG, 0-time
[43] = 3.0 mg/mL infusion concentrate in PG, 5° C., 0.5 month
[44] = 3.0 mg/mL infusion concentrate in PG, 5° C., 1 month
[45] = 3.0 mg/mL infusion concentrate in PG, 5° C., 2 months
[46] = 3.0 mg/mL infusion concentrate in PG, 5° C., 3 months
[47] = 3.0 mg/mL infusion concentrate in PG, 25° C./60% RH, 0.5 month
[48] = 3.0 mg/mL infusion concentrate in PG, 25° C./60% RH, 1 month
[49] = 3.0 mg/mL infusion concentrate in PG, 25° C./60% RH, 2 months
[50] = 3.0 mg/mL infusion concentrate in PG, 25° C./60% RH, 3 months
[51] = 3.0 mg/mL infusion concentrate in PG, 45° C./60% RH, 0.5 month
[52] = 3.0 mg/mL infusion concentrate in PG, 45° C./60% RH, 1 month

SMILES: C=C/C=C\C(C)[C@H](OC(N)=O)[C@@H](C)[C@H](O)[C@@H](C)C/C(C)=C\C(C)C(O)[C@@H](C)/C=C\[C@@H](O)C[C@@H]1OC(=O)[C@H](C)C(O)C1C (single isomer, unassigned; (+)) [discodermolide, (+)-Discodermolide]
- Period of stability of i.v. solution ([1]; 0.77 mg/mL in 40% propylene glycol, 10% ethanol, 50% normal saline, room temperature): 8 h
- Period of stability of infusion concentrate vials ([1]; 2 mg discodermolide in 1.0 mL 98-100% propylene glycol, 2-8° C.): at least 2 years
- solubility ([2]; 40% PG/10% EtOH/4% benzoic acid in normal saline): 1900 µg/mL (≈ 3.2 mM)
- solubility ([2]; 40% PG/10% EtOH/4% benzoic acid/1% benzyl alcohol in normal saline): 2200 µg/mL (≈ 3.7 mM)
- solubility ([2]; propylene glycol/ethanol/normal saline mixture, 40% PG/10% EtOH in normal saline): 910 µg/mL (≈ 1.53 mM)
- Assay [3, 5]: 105.6 % label claim
- Total Impurities [3, 5]: 0.17 % area
- Assay [3, 6]: 105.6 % label claim
- Total Impurities [3, 6]: 0.17 % area
- Assay [3, 7]: 106.4 % label claim
- Total Impurities [3, 7]: 0.21 % area
- Assay [3, 8]: 107.0 % label claim
- Total Impurities [3, 8]: 0.25 % area
- Assay [3, 9]: 104.6 % label claim
- Total Impurities [3, 9]: 0.33 % area
- Assay [3, 10]: 102.3 % label claim
- Total Impurities [3, 10]: 0.23 % area
- Assay [3, 11]: 101.8 % label claim
- Total Impurities [3, 11]: 0.97 % area
- Assay [3, 12]: 102.2 % label claim
- Total Impurities [3, 12]: 1.84 % area
- Assay [3, 13]: 102.0 % label claim
- Total Impurities [3, 13]: 3.35 % area
- Assay [3, 14]: 94.8 % label claim
- Total Impurities [3, 14]: 6.21 % area
- Assay [3, 15]: 103.0 % label claim
- Total Impurities [3, 15]: 0.28 % area
- Assay [3, 16]: 100.0 % label claim
- Total Impurities [3, 16]: 1.49 % area
- Assay [3, 17]: 99.4 % label claim
- Total Impurities [3, 17]: 2.19 % area
- Assay [3, 18]: 98.8 % label claim
- Total Impurities [3, 18]: 3.68 % area
- Assay [3, 19]: 89.9 % label claim
- Total Impurities [3, 19]: 8.90 % area
- Assay [4, 20]: 100.4 % label claim
- Total Impurities [4, 20]: 0.18%
- Assay [4, 21]: 103.2 % label claim
- Total Impurities [4, 21]: 0.16%
- Assay [4, 22]: 102.6 % label claim
- Total Impurities [4, 22]: 0.19%
- Assay [4, 23]: 103.3 % label claim
- Total Impurities [4, 23]: 0.27%
- Assay [4, 24]: 103.8 % label claim
- Total Impurities [4, 24]: 0.29%
- Assay [4, 25]: 102.8 % label claim
- Total Impurities [4, 25]: 0.65%
- Assay [4, 26]: 101.9 % label claim
- Total Impurities [4, 26]: 1.08%
- Assay [4, 27]: 102.5 % label claim
- Total Impurities [4, 27]: 1.18%
- Assay [4, 28]: 102.4 % label claim
- Total Impurities [4, 28]: 1.43%
- Assay [4, 29]: 102.0 % label claim
- Total Impurities [4, 29]: 1.49%
- Assay [4, 30]: 101.6 % label claim
- Total Impurities [4, 30]: 1.91%
- Assay [4, 31]: 99.9 % label claim
- Total Impurities [4, 31]: 0.19%
- Assay [4, 32]: 103.2 % label claim
- Total Impurities [4, 32]: 0.16%
- Assay [4, 33]: 100.5 % label claim
- Total Impurities [4, 33]: 0.18%
- Assay [4, 34]: 102.5 % label claim
- Total Impurities [4, 34]: 0.18%
- Assay [4, 35]: 101.0 % label claim
- Total Impurities [4, 35]: 0.54%
- Assay [4, 36]: 101.1 % label claim
- Total Impurities [4, 36]: 0.55%
- Assay [4, 37]: 99.6 % label claim
- Total Impurities [4, 37]: 0.78%
- Assay [4, 38]: 101.4 % label claim
- Total Impurities [4, 38]: 1.18%
- Assay [4, 39]: 100.9 % label claim
- Total Impurities [4, 39]: 1.48%
- Assay [4, 40]: 100.3 % label claim
- Total Impurities [4, 40]: 1.17%
- Assay [4, 41]: 100.0 % label claim
- Total Impurities [4, 41]: 1.69%
- Assay [4, 42]: 102.7 % label claim
- Total Impurities [4, 42]: 0.19%
- Assay [4, 43]: 101.5 % label claim
- Total Impurities [4, 43]: 0.16%
- Assay [4, 44]: 102.0 % label claim
- Total Impurities [4, 44]: 0.19%
- Assay [4, 45]: 104.1 % label claim
- Total Impurities [4, 45]: 0.17%
- Assay [4, 46]: 104.4 % label claim
- Total Impurities [4, 46]: 0.29%
- Assay [4, 47]: 102.4 % label claim
- Total Impurities [4, 47]: 0.35%
- Assay [4, 48]: 101.3 % label claim
- Total Impurities [4, 48]: 0.52%
- Assay [4, 49]: 103.1 % label claim
- Total Impurities [4, 49]: 0.69%
- Assay [4, 50]: 102.1 % label claim
- Total Impurities [4, 50]: 0.69%
- Assay [4, 51]: 100.9 % label claim
- Total Impurities [4, 51]: 0.58%
- Assay [4, 52]: 101.5 % label claim
- Total Impurities [4, 52]: 0.70%
- Levels of impurities under accelerated conditions ([4]; 25° C./60% RH and 45° C./60% RH): increased
- Change in discodermolide content ([4]; PG infusion concentrates, after 3 months at 5° C.): No significant changes
- Total impurity amounts ([4]; PG infusion concentrates, after 3 months at 5° C., versus proposed specification limit): < 2.0%
